According to US5132302A, “Use of aromatic aminoalkoxy derivatives for the treatment of troubles of the cerebrovascular system” (priority 1989, dated 1992):
Where two headings read alike, the source gives them in different places.

System: isolated balisar artery of a rabbit
Assay: test of contractions of the isolated balisar artery of a rabbit in a hypopotassic medium (contraction induced by KC1)
Assay type: cell-based
Conditions: Oryctolagus cuniculus, read-out: IC50 (concentrations which reduce by 50% the amplitude of the contraction induced by KC1)
Method: The protocol of this test is the following. The rabbit is anaesthetized with pentobarbital at a dose of 30 mg/kg then sacrificed by exsanguination and decapitated at the level of the third cervical vertebra. The balisar artery is removed (1.5 cm) between the vertebral arteries and the polygon of Willis. The balisar artery is then cut in a spiral at an angle of 45° . It is fixed by means of a curved needle between an L shaped glass carrier and a displacement sensor (Grass, type FT03). A mechanical tension of 500 mg is applied to the vessel before letting it reach its balance state.
For a period of an hour, the vessel is rinsed every twenty minutes until a stable level is obtained.
The tonic contraction consecutive to depolarization caused by KC1 is dependent on the calcic movements for it is abolished by the suppression of calcium in the survival medium.

[1] = isolated rabbit balisar artery, KC1 at 35 mmoles

Row | IC50 [1] | SMILES | IC50
1 | 26 nM | COc1ccc(OC)c(C(O)CCc2ccc(O)cc2)c1OCCN1CCCCC1 (stereo not shown) [compound 10] | –
2 | 2.3 nM | COc1cc(Cl)c(OC)c(OCCN2CCCCC2)c1C(O)CCc1ccc(O)cc1 (stereo not shown) [compound 69] | –
3 | 1.4 nM | COc1cc([N+](=O)[O-])c(OC)c(C(O)CCc2ccc(O)cc2)c1OCCN1CCCCC1 (stereo not shown) [compound 74] | –

More lines, now with the values behind:

Row | SMILES | IC50 [1] | IC50
4 | COc1ccc(OC)c(C(O)CCc2ccccc2)c1OCCN1CCCCC1 (stereo not shown) [compound 3] | 400 nM | –
5 | CCN(CC)CCOc1c(OC)c(Cl)cc(OC)c1C(O)CCc1ccc(O)cc1 (stereo not shown) [compound 70] | 7.2 nM | –
6 | COc1cc(Cl)c(OC)c(OCCN(C(C)C)C(C)C)c1C(O)CCc1ccc(O)cc1 (stereo not shown) [compound 71] | 9.8 nM | –
7 | COc1cc(F)c(OC)c(OCCN2CCCCC2)c1C(O)CCc1ccc(O)cc1 (stereo not shown) [compound 72] | – | 3 nM
